Laboratory results as given in EP4737454A1, “GLP-1 RECEPTOR AGONIST, AND PREPARATION METHOD THEREFOR AND USE THEREOF” (Wayne Biotechnology Co., Ltd., priority 2023, dated 2025).
pEC50: −log10 of the molar value.

Target: Human GLP-1R (Homo sapiens, UniProt P43220)
Experiment: cAMP level determination in human GLP-1R stably transfected HEK293T cells (HTRF cAMP kit)
Assay type: cell-based
Conditions: 37°C 30 min
Procedure: Human GLP-1R HEK293T stably transfected cells were digested with trypsin, terminated with DMEM total (without p/s), centrifuged and washed twice with 1X Stimulation buffer, then resuspended in 1X stimulation buffer and counted. The cells were then prepared as a 1 Million/mL cell suspension in stimulation buffer. Compound powder was first prepared as a 10 mM stock solution in DMSO, then diluted to 2 mM with DMSO, and further prepared as 2X compound in 1X stimulation buffer (Cisbio kit buffer with freshly added IBMX at a final concentration of 0.5 mM). The top dose final concentration was 2000 nM, with a final DMSO concentration of 0.2%, diluted in a 1:3 gradient for 11 gradients.
According to the layout, 5 µl of compound was added to each well; Min wells contained 100 nM GLP-1, and Max wells contained 0.2% DMSO in 1X stimulation buffer. 5 µl of cell suspension was added to each well, centrifuged at 300 rpm at room temperature for 1 min, then incubated at 37°C for 30 min. 2X cAMP standards were prepared in 1X Stimulation buffer, with a top final concentration of 2.8 µM, diluted in a 1:3 gradient for 12 doses. According to the layout, 10 µl was added to each well. Finally, d2 and antibody were diluted 20-fold in 1X Detection buffer (Cisbio kit buffer), and 5 µl of each was added to each well according to the layout. After centrifugation at 300 rpm at room temperature for 1 min, the plate was incubated at room temperature for 2 hr.
Stimulation% was calculated based on Min and Max readings (665nm/615nm ratio) using the formula: 100*(ratio Max well - ratio test well)/(ratio Max well - ratio Min well). The cAMP concentration in each test well was derived from the cAMP standard curve, and the data was analyzed using GraphPad Prism 9 to plot four-parameter fit curves and calculate EC50 values using the formula: Y=Bottom + (Top-Bottom)/(1+10^((LogEC50-X)*HillSlope)). Table 1: cAMP Level Determination in Human GLP-1R Stably Transfected HEK293T Cells

Human GLP-1R, sequence (P43220 24-463): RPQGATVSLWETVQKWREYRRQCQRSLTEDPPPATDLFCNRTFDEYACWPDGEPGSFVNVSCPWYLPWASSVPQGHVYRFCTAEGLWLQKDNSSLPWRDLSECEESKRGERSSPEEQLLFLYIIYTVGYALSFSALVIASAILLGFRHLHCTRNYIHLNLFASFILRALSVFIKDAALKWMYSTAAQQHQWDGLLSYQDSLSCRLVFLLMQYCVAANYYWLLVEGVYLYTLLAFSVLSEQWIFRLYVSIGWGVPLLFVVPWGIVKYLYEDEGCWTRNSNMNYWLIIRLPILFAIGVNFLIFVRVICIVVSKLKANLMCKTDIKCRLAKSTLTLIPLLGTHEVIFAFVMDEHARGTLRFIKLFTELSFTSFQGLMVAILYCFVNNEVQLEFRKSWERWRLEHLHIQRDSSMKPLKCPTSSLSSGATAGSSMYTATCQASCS

Compound | pEC50
Cc1cc(-n2nc3c(c2-n2ccn(-c4ccc(N(C)C5CC5)c(Cl)c4)c2=O)[C@H](C)N(C(=O)c2cc4cc(C5CCOC(C)(C)C5)ccc4n2[C@@]2(c4nc(=O)o[nH]4)C[C@@H]2C)CC3)cc(C)c1F (stereo partly shown) [Compound 67] | 7.17
Cc1cc(-n2nc3c(c2-n2ccn(-c4ccc(C#N)cc4F)c2=O)[C@H](C)N(C(=O)c2cc4cc([C@@H]5CCOC(C)(C)C5)ccc4n2[C@@]2(c4nc(=O)o[nH]4)C[C@@H]2C)CC3)cc(C)c1F [Compound 81a] | 6.41
Cc1cc(-n2nc3c(c2-n2ccn(-c4ccc(C(=O)N(C)C5CC5)c(OC(F)(F)F)c4F)c2=O)[C@H](C)N(C(=O)c2cc4cc([C@H]5CCOC(C)(C)C5)ccc4n2[C@@]2(c4nc(=O)o[nH]4)C[C@@H]2C)CC3)cc(C)c1F [Compound 54] | 8.35
Cc1cc(-n2nc3c(c2-n2ccn(-c4ccc(C#N)c(C5CC5)c4)c2=O)[C@H](C)N(C(=O)c2cc4cc(C5CCOC(C)(C)C5)ccc4n2[C@@]2(c4nc(=O)o[nH]4)C[C@@H]2C)CC3)cc(C)c1F (stereo partly shown) [Compound 79] | 7.75
Cc1cc(-n2nc3c(c2-n2ccn(-c4ccc(N(C)C5CC5)c(OC(F)(F)F)c4)c2=O)[C@H](C)N(C(=O)c2cc4cc(C5CCOC(C)(C)C5)ccc4n2[C@@]2(c4noc(=O)[nH]4)C[C@@H]2C)CC3)cc(C)c1F (stereo partly shown) [Compound 66] | 7.17
Cc1cc(-n2nc3c(c2-n2ccn(-c4ccc(C#N)c(OC(F)F)c4)c2=O)[C@H](C)N(C(=O)c2cc4cc(C5CCOC(C)(C)C5)ccc4n2[C@@]2(c4nc(=O)o[nH]4)C[C@@H]2C)CC3)cc(C)c1F (stereo partly shown) [Compound 95] | 7.75
C[C@H]1c2c(nn(-c3ccc(F)c(N4CCCC4)c3)c2-n2ccn(-c3ccc4c(cnn4C)c3F)c2=O)CCN1C(=O)c1cc2cc(C3CCOC(C)(C)C3)ccc2n1[C@@]1(c2nc(=O)o[nH]2)C[C@@H]1C (stereo partly shown) [Compound 3] | 7.58
Cc1cc(-n2nc3c(c2-n2ccn(-c4ccc(N(C)C(=O)C5(C)CC5)c(F)c4)c2=O)[C@H](C)N(C(=O)c2cc4cc([C@H]5CCOC(C)(C)C5)ccc4n2[C@@]2(c4nc(=O)o[nH]4)C[C@@H]2C)CC3)cc(C)c1F [Compound 71] | 8.40
Cc1cc(-n2nc3c(c2-n2ccn(-c4ccc(C#N)cc4F)c2=O)[C@H](C)N(C(=O)c2cc4cc([C@H]5CCOC(C)(C)C5)ccc4n2[C@@]2(c4nc(=O)o[nH]4)C[C@@H]2C)CC3)cc(C)c1F [Compound 81b] | 8.41
Cc1cc(-n2nc3c(c2-n2ccn(-c4ccc(N(C)C(=O)C5CC5)cc4Cl)c2=O)[C@H](C)N(C(=O)c2cc4cc([C@H]5CCOC(C)(C)C5)ccc4n2[C@@]2(c4nc(=O)o[nH]4)C[C@@H]2C)CC3)cc(C)c1F [Compound 77] | 8.21
Cc1cc(C#N)ccc1-n1ccn(-c2c3c(nn2-c2cc(C)c(F)c(C)c2)CCN(C(=O)c2cc4cc(C5CCOC(C)(C)C5)ccc4n2[C@@]2(c4nc(=O)o[nH]4)C[C@@H]2C)[C@H]3C)c1=O (stereo partly shown) [Compound 88] | 6.69
Cc1cc(-n2nc3c(c2-n2ccn(-c4ccc(C#N)c(OC(F)(F)F)c4)c2=O)[C@H](C)N(C(=O)c2cc4cc(C5CCOC(C)(C)C5)ccc4n2[C@@]2(c4nc(=O)o[nH]4)C[C@@H]2C)CC3)cc(C)c1F (stereo partly shown) [Compound 78] | 7.69
Cc1cc(-n2nc3c(c2-n2ccn(-c4ccc(C#N)cc4)c2=O)[C@H](C)N(C(=O)c2cc4cc(C5CCOC(C)(C)C5)ccc4n2[C@@]2(c4nc(=O)o[nH]4)C[C@@H]2C)CC3)cc(C)c1F (stereo partly shown) [Compound 90] | 7.82
Cc1cc(-n2nc3c(c2-n2ccn(-c4ccc(C(=O)N(C)C5CC5)cc4)c2=O)[C@H](C)N(C(=O)c2cc4cc([C@H]5CCOC(C)(C)C5)ccc4n2[C@@]2(c4nc(=O)o[nH]4)C[C@@H]2C)CC3)cc(C)c1F [Compound 10] | 8.07
Cc1cc(-n2nc3c(c2-n2ccn(-c4ccc(N(C)C(=O)C5CC5)c(C(F)(F)F)c4)c2=O)[C@H](C)N(C(=O)c2cc4cc([C@H]5CCOC(C)(C)C5)ccc4n2[C@@]2(c4nc(=O)o[nH]4)C[C@@H]2C)CC3)cc(C)c1F [Compound 74] | 8.49
Cc1cc(-n2nc3c(c2-n2ccn(-c4ccc(C(F)(F)F)c(C(=O)N(C)C5CC5)c4)c2=O)[C@H](C)N(C(=O)c2cc4cc(C5CCOC(C)(C)C5)ccc4n2[C@@]2(c4nc(=O)o[nH]4)C[C@@H]2C)CC3)cc(C)c1F (stereo partly shown) [Compound 37] | 7.73
Cc1cc(-n2nc3c(c2-n2ccn(-c4ccc5c(c4F)CCS5(=O)=O)c2=O)[C@H](C)N(C(=O)c2cc4cc(C5CCOC(C)(C)C5)ccc4n2[C@@]2(c4nc(=O)o[nH]4)C[C@@H]2C)CC3)cc(C)c1F (stereo partly shown) [Compound 60] | 7.97

Compound | pEC50
Cc1cc(-n2nc3c(c2-n2ccn(-c4ccc(N(C)C(=O)C5CC5)c(F)c4)c2=O)[C@H](C)N(C(=O)c2cc4cc([C@@H]5CCOC(C)(C)C5)ccc4n2[C@@]2(c4noc(=O)[nH]4)C[C@@H]2C)CC3)cc(C)c1F [Compound 63a] | 6.84
C[C@H]1c2c(nn(-c3ccc(F)c(C4CC4)c3)c2-n2ccn(-c3ccc4c(cnn4C)c3F)c2=O)CCN1C(=O)c1cc2cc([C@H]3CCOC(C)(C)C3)ccc2n1[C@@]1(c2nc(=O)o[nH]2)C[C@@H]1C [Compound 1b] | 7.76
Cc1cc(-n2nc3c(c2-n2ccn(-c4ccc(C(=O)N(C)C5CC5)c(C(F)(F)F)c4F)c2=O)[C@H](C)N(C(=O)c2cc4cc([C@H]5CCOC(C)(C)C5)ccc4n2[C@@]2(c4nc(=O)o[nH]4)C[C@@H]2C)CC3)cc(C)c1F [Compound 14] | 8.25
Cc1cc(-n2nc3c(c2-n2ccn(-c4ccc(OC(F)(F)F)c(C#N)c4)c2=O)[C@H](C)N(C(=O)c2cc4cc(C5CCOC(C)(C)C5)ccc4n2[C@@]2(c4nc(=O)o[nH]4)C[C@@H]2C)CC3)cc(C)c1F (stereo partly shown) [Compound 94] | 7.67
Cc1cc(-n2nc3c(c2-n2ccn(-c4ccc(N(C)C(=O)C5CC5)c(Cl)c4)c2=O)[C@H](C)N(C(=O)c2cc4cc([C@H]5CCOC(C)(C)C5)ccc4n2[C@@]2(c4noc(=O)[nH]4)C[C@@H]2C)CC3)cc(C)c1F [Compound 70] | 8.45
Cc1cc(-n2nc3c(c2-n2ccn(-c4ccc(N(C)C5CC5)c(Cl)c4)c2=O)[C@H](C)N(C(=O)c2cc4cc([C@H]5CCOC(C)(C)C5)ccc4n2[C@@]2(c4noc(=O)[nH]4)C[C@@H]2C)CC3)cc(C)c1F [Compound 67b] | 7.95
Cc1cc(-n2nc3c(c2-n2ccn(-c4ccc(C(=O)N(C)C5CC5)nc4)c2=O)[C@H](C)N(C(=O)c2cc4cc(C5CCOC(C)(C)C5)ccc4n2[C@@]2(c4nc(=O)o[nH]4)C[C@@H]2C)CC3)cc(C)c1F (stereo partly shown) [Compound 24] | 7.27
Cc1cc(-n2nc3c(c2-n2ccn(-c4ccc(N(C)C5CC5)c(Cl)c4)c2=O)[C@H](C)N(C(=O)c2cc4cc([C@@H]5CCOC(C)(C)C5)ccc4n2[C@@]2(c4noc(=O)[nH]4)C[C@@H]2C)CC3)cc(C)c1F [Compound 67a] | 7.29
Cc1cc(-n2nc3c(c2-n2ccn(-c4ccc5c(c4)S(=O)(=O)CCC5)c2=O)[C@H](C)N(C(=O)c2cc4cc(C5CCOC(C)(C)C5)ccc4n2[C@@]2(c4nc(=O)o[nH]4)C[C@@H]2C)CC3)cc(C)c1F (stereo partly shown) [Compound 59] | 7.82
Cc1cc(-n2nc3c(c2-n2ccn(-c4ccc(C#N)c(C(F)(F)F)c4)c2=O)[C@H](C)N(C(=O)c2cc4cc(C5CCOC(C)(C)C5)ccc4n2[C@@]2(c4nc(=O)o[nH]4)C[C@@H]2C)CC3)cc(C)c1F (stereo partly shown) [Compound 86] | 7.86
Cc1cc(-n2nc3c(c2-n2ccn(-c4ccc(N(C)C5CC5)c(C(F)(F)F)c4)c2=O)[C@H](C)N(C(=O)c2cc4cc(C5CCOC(C)(C)C5)ccc4n2[C@@]2(c4nc(=O)o[nH]4)C[C@@H]2C)CC3)cc(C)c1F (stereo partly shown) [Compound 64] | 7.54
Cc1cc(-n2nc3c(c2-n2ccn(-c4ccc5c(c4)C=CS5(=O)=O)c2=O)[C@H](C)N(C(=O)c2cc4cc([C@@H]5CCOC(C)(C)C5)ccc4n2[C@@]2(c4noc(=O)[nH]4)C[C@@H]2C)CC3)cc(C)c1F [Compound 62a] | 6.65
Cc1cc(-n2nc3c(c2-n2ccn(-c4ccc(N(C)C(=O)C5CC5)c(F)c4)c2=O)[C@H](C)N(C(=O)c2cc4cc([C@H]5CCOC(C)(C)C5)ccc4n2[C@@]2(c4noc(=O)[nH]4)C[C@@H]2C)CC3)cc(C)c1F [Compound 63b] | 8.19
Cc1cc(-n2nc3c(c2-n2ccn(-c4ccc(C(=O)N(C)CC#N)cc4)c2=O)[C@H](C)N(C(=O)c2cc4cc(C5CCOC(C)(C)C5)ccc4n2[C@@]2(c4nc(=O)o[nH]4)C[C@@H]2C)CC3)cc(C)c1F (stereo partly shown) [Compound 44] | 7.77
Cc1cc(-n2nc3c(c2-n2ccn(-c4ccc(C#N)c(F)c4)c2=O)[C@H](C)N(C(=O)c2cc4cc([C@H]5CCOC(C)(C)C5)ccc4n2[C@@]2(c4nc(=O)o[nH]4)C[C@@H]2C)CC3)cc(C)c1F [Compound 82b] | 8.19
Cc1cc(-n2nc3c(c2-n2ccn(-c4ccc(C(=O)N(C)C5CCC5)cc4)c2=O)[C@H](C)N(C(=O)c2cc4cc(C5CCOC(C)(C)C5)ccc4n2[C@@]2(c4nc(=O)o[nH]4)C[C@@H]2C)CC3)cc(C)c1F (stereo partly shown) [Compound 21] | 7.84
C[C@H]1c2c(nn(-c3ccc(F)c(OC(F)(F)F)c3)c2-n2ccn(-c3ccc4c(cnn4C)c3F)c2=O)CCN1C(=O)c1cc2cc(C3CCOC(C)(C)C3)ccc2n1[C@@]1(c2nc(=O)o[nH]2)C[C@@H]1C (stereo partly shown) [Compound 4] | 7.46
